Assays:
[1] = biological target: T1, Sodium/glucose cotransporter 2 (Homo sapiens) (UniProt P31639); experiment: Inhibition of human SGLT2 expressed in COS1 cells assessed as [14C]methyl-alpha-D-glucopyranoside uptake at 50 uM; assay type: cell-based; details: COS-1
T1 sequence (whole entry): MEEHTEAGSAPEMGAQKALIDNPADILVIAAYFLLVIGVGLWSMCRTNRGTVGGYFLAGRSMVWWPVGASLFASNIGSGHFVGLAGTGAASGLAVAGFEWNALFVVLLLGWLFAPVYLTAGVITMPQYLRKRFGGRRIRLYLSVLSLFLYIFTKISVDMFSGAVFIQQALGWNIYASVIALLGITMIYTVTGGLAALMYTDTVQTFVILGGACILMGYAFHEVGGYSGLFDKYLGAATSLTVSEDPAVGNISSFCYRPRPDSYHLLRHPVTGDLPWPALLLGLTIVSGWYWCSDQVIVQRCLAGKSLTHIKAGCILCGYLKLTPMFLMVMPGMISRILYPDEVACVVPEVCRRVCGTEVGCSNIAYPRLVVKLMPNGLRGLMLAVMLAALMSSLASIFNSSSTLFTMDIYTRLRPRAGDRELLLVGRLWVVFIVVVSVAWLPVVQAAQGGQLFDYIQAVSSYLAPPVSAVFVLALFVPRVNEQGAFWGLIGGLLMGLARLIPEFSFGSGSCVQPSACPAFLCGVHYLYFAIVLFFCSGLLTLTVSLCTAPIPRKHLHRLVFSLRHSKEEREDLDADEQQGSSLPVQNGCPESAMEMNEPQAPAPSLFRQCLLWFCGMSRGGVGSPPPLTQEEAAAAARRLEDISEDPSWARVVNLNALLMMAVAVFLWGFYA

[2] = biological target: T2, Sodium/glucose cotransporter 1 (Homo sapiens) (UniProt P13866); experiment: Inhibition of human SGLT1 expressed in COS1 cells assessed as [14C]methyl-alpha-D-glucopyranoside uptake at 50 uM; assay type: cell-based; details: COS-1
T2 sequence (whole entry): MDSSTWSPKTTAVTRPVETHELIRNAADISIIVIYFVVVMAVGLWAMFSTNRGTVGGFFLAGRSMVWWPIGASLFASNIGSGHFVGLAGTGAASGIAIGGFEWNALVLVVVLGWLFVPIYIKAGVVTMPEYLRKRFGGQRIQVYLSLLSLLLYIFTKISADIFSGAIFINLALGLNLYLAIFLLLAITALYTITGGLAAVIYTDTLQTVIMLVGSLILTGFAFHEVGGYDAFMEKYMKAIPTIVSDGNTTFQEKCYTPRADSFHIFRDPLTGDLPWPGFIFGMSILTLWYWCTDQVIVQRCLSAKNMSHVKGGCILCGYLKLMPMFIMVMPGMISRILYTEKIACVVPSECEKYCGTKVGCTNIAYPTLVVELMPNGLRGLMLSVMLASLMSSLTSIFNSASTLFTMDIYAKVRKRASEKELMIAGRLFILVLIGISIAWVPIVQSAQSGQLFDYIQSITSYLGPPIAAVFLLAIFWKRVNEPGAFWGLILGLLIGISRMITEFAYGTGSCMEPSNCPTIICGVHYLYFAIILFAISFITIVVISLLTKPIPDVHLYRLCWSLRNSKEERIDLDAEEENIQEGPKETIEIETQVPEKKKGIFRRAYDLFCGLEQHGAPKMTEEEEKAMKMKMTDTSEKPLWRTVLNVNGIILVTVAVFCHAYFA

| inhibition [1] [%] | inhibition [2] [%] | Compound |
| --- | --- | --- |
| 33.9 | 92.7 | Oc1ccc2cc1Oc1ccc(cc1)CC[C@H](O)CCCC2 |
| 16.8 | 15.7 | O=C(Oc1ccc2cc1Oc1ccc(cc1)CC[C@@H](OC(=O)c1ccc(Cl)cc1)CCCC2)c1ccc(Cl)cc1 |
| -9.7 | -1.7 | O=C(Oc1ccc2cc1Oc1ccc(cc1)CC[C@@H](OC(=O)c1ccccc1)CCCC2)c1ccccc1 |
| 53.3 | 44.6 | COc1ccc2cc1Oc1ccc(cc1)CCC(=O)CCCC2 |
| 34.3 | 20.6 | CC(C)C(=O)Oc1ccc2cc1Oc1ccc(cc1)CC[C@@H](OC(=O)C(C)C)CCCC2 |
| 67.5 | 68.8 | CC(=O)Oc1ccc2cc1Oc1ccc(cc1)CC[C@@H](OC(C)=O)CCCC2 |
| 54.2 | 94.2 | Oc1ccc2cc1Oc1ccc(cc1)CCCC[C@H](O)CC2 |
| 19.3 | 13.5 | CC(=O)Oc1ccc2cc1Oc1ccc(cc1)CCC(=O)CCCC2 |
| 29.5 | 67.8 | COc1ccc2cc1Oc1ccc(cc1)CC[C@@H](O)CCCC2 |
| 62.4 | 77.9 | COc1ccc2cc1Oc1ccc(cc1)CCCCC(O)CC2 (stereo not drawn) |

Second part, the molecule before the results:

| Compound | inhibition [1] [%] | inhibition [2] [%] |
| --- | --- | --- |
| O[C@H]1CCCCc2ccc(OCc3ccccc3)c(c2)Oc2ccc(cc2)CC1 | 45.3 | 31.4 |
| O=C1CCCCc2ccc(O)c(c2)Oc2ccc(cc2)CC1 | 67.8 | 44.9 |
| Oc1ccc2cc1Oc1ccc(cc1)CCCCCCC2 | 77.4 | 96.3 |
| O=C1CCc2ccc(cc2)Oc2cc(ccc2O)CCCCN1 | 76.9 | 46.5 |
| O=C1CCCCc2ccc(OC(=O)c3ccccc3)c(c2)Oc2ccc(cc2)CC1 | 45.2 | 1.4 |
| COc1ccc2cc1Oc1ccc(cc1)CCCCC(=O)CC2 | 65.4 | 37.7 |
| Oc1ccc2cc1Oc1ccc(cc1)C/C=C/CCCC2 | 15.3 | 73.7 |
| OC[C@H]1O[C@H](Oc2ccc3cc2Oc2ccc(cc2)CC[C@@H](O)CCCC3)[C@H](O)[C@@H](O)[C@@H]1O | 15 | 18.3 |
| O=C1CCCCc2ccc(OCc3ccccc3)c(c2)Oc2ccc(cc2)CC1 | 19.8 | 3.9 |

Source: ChEMBL document CHEMBL1159054, “Cyclic diarylheptanoids as Na+-glucose cotransporter (SGLT) inhibitors from Acer nikoense” (Bioorg Med Chem Lett, 2010)
